# Test results taken from ChEMBL document CHEMBL3813628, “Molecular similarity guided optimization of novel Nrf2 activators with 1,2,4-oxadiazole core” (Bioorg Med Chem, 2016).
# Assays:
# [1] = target: T1, Nuclear factor erythroid 2-related factor 2 (Homo sapiens) (UniProt Q16236); assay: Activation of Nrf2 in human HepG2 cells at 80 uM incubated for 12 hrs by ARE-driven luciferase reporter gene assay relative to control; assay type: cell-based
# T1 sequence (whole entry): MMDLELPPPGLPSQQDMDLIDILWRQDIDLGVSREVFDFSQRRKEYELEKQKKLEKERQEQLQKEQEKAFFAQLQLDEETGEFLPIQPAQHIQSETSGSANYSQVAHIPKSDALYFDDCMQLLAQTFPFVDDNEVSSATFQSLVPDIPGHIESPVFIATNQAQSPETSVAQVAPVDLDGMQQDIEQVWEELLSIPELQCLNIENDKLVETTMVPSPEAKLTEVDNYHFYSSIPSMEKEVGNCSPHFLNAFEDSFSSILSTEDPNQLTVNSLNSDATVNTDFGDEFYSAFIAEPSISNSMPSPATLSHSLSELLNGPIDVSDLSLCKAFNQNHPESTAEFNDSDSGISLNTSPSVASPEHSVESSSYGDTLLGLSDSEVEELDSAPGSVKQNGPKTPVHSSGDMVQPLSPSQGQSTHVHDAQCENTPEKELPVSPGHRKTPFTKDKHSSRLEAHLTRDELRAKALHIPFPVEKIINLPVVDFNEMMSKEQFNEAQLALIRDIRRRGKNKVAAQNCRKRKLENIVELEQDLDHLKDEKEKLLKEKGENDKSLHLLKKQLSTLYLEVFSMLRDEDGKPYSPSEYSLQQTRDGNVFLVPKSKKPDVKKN
# [2] = target: T1, Nuclear factor erythroid 2-related factor 2 (Homo sapiens); assay: Activation of Nrf2 in human HepG2 cells at 160 uM incubated for 12 hrs by ARE-driven luciferase reporter gene assay relative to control; assay type: cell-based
# [3] = target: T1, Nuclear factor erythroid 2-related factor 2 (Homo sapiens); assay: Activation of Nrf2 in human HepG2 cells incubated for 12 hrs by ARE-driven luciferase reporter gene assay relative to control; assay type: cell-based
# [4] = Cytotoxicity against human HCT116 cells assessed as cell viability after 24 hrs by MTT assay; assay type: cell-based; conditions: hct-116, 24 h
# [5] = target: T1, Nuclear factor erythroid 2-related factor 2 (Homo sapiens); assay: Induction of Nrf2 translocation into nucleus in human NCM460 cells after 12 hrs by DAPI staining-based laser scanning confocal microscopic analysis; assay type: cell-based
# [6] = target: T1, Nuclear factor erythroid 2-related factor 2 (Homo sapiens); assay: Induction of Nrf2 translocation into nucleus in human L02 cells after 12 hrs by DAPI staining-based laser scanning confocal microscopic analysis; assay type: cell-based
# [7] = Cytotoxicity against human L02 cells assessed as cell viability at 160 uM after 24 hrs by MTT assay relative to control; assay type: cell-based; conditions: read-out: Activity
# [8] = Cytotoxicity against human NCM460 cells assessed as cell viability at 160 uM after 24 hrs by MTT assay relative to control; assay type: cell-based; conditions: read-out: Activity
# [9] = Cytotoxicity against rat PC12 cells assessed as cell viability at 160 uM after 24 hrs by MTT assay relative to control; assay type: cell-based, PC-12; conditions: read-out: Activity
# [10] = Cytotoxicity against human L02 cells assessed as cell viability at low to medium concentration after 24 hrs by MTT assay relative to control; assay type: cell-based; conditions: l02, 24 h
# [11] = Cytotoxicity against human NCM460 cells assessed as cell viability at low to medium concentration after 24 hrs by MTT assay relative to control; assay type: cell-based; conditions: ncm460, 24 h
# [12] = Cytotoxicity against rat PC12 cells assessed as cell viability at low to medium concentration after 24 hrs by MTT assay relative to control; assay type: cell-based; conditions: pc-12, 24 h
# [13] = Cytotoxicity against human L02 cells assessed as cell viability at 20 uM after 24 hrs by MTT assay relative to control; assay type: cell-based; conditions: l02, 24 h
# [14] = Cytotoxicity against human NCM460 cells assessed as cell viability at 20 uM after 24 hrs by MTT assay relative to control; assay type: cell-based; conditions: ncm460, 24 h
# [15] = Cytotoxicity against rat PC12 cells assessed as cell viability at 20 uM after 24 hrs by MTT assay relative to control; assay type: cell-based; conditions: pc-12, 24 h
# [16] = Cytoprotective activity against H2O2-induced cytotoxicity in human L02 cells assessed as cell viability pretreated at 20 uM for 24 hrs followed by H2O2 challenge for 12 hrs by MTT assay (reference value: 50%); assay type: functional; conditions: read-out: Activity
# [17] = Cytoprotective activity against H2O2-induced cytotoxicity in human NCM460 cells assessed as cell viability pretreated at 20 uM for 24 hrs followed by H2O2 challenge for 12 hrs by MTT assay (reference value: 50%); assay type: functional; conditions: read-out: Activity
# [18] = Cytoprotective activity against H2O2-induced cytotoxicity in rat PC12 cells assessed as cell viability pretreated at 20 uM for 24 hrs followed by H2O2 challenge for 12 hrs by MTT assay (reference value: 50%); assay type: functional; conditions: PC-12, read-out: Activity
# [19] = target: T1, Nuclear factor erythroid 2-related factor 2 (Homo sapiens); assay: Activation of Nrf2 expression in human HCT116 cells after 8 hrs by western blot analysis; assay type: cell-based; conditions: HCT-116
# [20] = target: T1, Nuclear factor erythroid 2-related factor 2 (Homo sapiens); assay: Induction of Nrf2 translocation from cytoplasm to nucleus in human HCT116 cells at 20 uM by western blot analysis; assay type: cell-based; conditions: HCT-116, TDE = time-dependent effect
# [21] = target: T1, Nuclear factor erythroid 2-related factor 2 (Homo sapiens); assay: Activation of Nrf2 in human HCT116 cells assessed as upregulation of gamma-GCS after 8 hrs by western blot analysis; assay type: cell-based; conditions: HCT-116
# [22] = target: T1, Nuclear factor erythroid 2-related factor 2 (Homo sapiens); assay: Activation of Nrf2 in human HCT116 cells assessed as upregulation of NQO1 after 8 hrs by western blot analysis; assay type: cell-based; conditions: HCT-116
# [23] = target: T1, Nuclear factor erythroid 2-related factor 2 (Homo sapiens); assay: Activation of Nrf2 in human HCT116 cells assessed as upregulation of HO-1 after 8 hrs by western blot analysis; assay type: cell-based; conditions: HCT-116
# [24] = target: T2, Nuclear factor erythroid 2-related factor 2 (Rattus norvegicus) (UniProt O54968); assay: Induction of Nrf2 translocation into nucleus in rat PC12 cells after 12 hrs by DAPI staining-based laser scanning confocal microscopic analysis; assay type: cell-based; conditions: PC-12
# T2 sequence (whole entry): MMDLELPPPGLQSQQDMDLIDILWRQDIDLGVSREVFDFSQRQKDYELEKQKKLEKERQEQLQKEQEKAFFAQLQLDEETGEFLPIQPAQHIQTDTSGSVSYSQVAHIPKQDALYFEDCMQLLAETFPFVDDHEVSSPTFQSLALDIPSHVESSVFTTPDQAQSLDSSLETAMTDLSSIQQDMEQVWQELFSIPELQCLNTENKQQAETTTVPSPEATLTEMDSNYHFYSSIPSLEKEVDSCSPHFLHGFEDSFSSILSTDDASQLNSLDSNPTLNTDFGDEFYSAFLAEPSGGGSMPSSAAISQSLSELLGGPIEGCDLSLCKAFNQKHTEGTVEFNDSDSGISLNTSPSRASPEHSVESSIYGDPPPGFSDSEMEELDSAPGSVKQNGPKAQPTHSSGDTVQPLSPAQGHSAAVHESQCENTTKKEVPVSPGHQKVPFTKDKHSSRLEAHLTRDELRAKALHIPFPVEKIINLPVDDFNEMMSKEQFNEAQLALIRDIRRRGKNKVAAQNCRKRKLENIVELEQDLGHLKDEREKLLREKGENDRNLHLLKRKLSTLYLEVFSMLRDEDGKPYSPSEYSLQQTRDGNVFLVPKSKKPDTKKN
# [25] = target: T1, Nuclear factor erythroid 2-related factor 2 (Homo sapiens); assay: Activation of Nrf2 in human HepG2 cells at 5 uM incubated for 12 hrs by ARE-driven luciferase reporter gene assay relative to control; assay type: cell-based
# [26] = target: T1, Nuclear factor erythroid 2-related factor 2 (Homo sapiens); assay: Activation of Nrf2 in human HepG2 cells at 20 uM incubated for 12 hrs by ARE-driven luciferase reporter gene assay relative to control; assay type: cell-based
# [27] = target: T1, Nuclear factor erythroid 2-related factor 2 (Homo sapiens); assay: Activation of Nrf2 in human HepG2 cells at 0.02 uM incubated for 12 hrs by ARE-driven luciferase reporter gene assay relative to control; assay type: cell-based
# [28] = target: T1, Nuclear factor erythroid 2-related factor 2 (Homo sapiens); assay: Activation of Nrf2 in human HepG2 cells at 0.2 uM incubated for 12 hrs by ARE-driven luciferase reporter gene assay relative to control; assay type: cell-based
# [29] = target: T1, Nuclear factor erythroid 2-related factor 2 (Homo sapiens); assay: Activation of Nrf2 in human HepG2 cells at 2 uM incubated for 12 hrs by ARE-driven luciferase reporter gene assay relative to control; assay type: cell-based
# [30] = target: T1, Nuclear factor erythroid 2-related factor 2 (Homo sapiens); assay: Activation of Nrf2 in human HepG2 cells at 40 uM incubated for 12 hrs by ARE-driven luciferase reporter gene assay relative to control; assay type: cell-based
compound,measurement,setting,value
Cc1nc2cc(-c3noc(-c4cnccn4)n3)ccc2o1,fold change (FC),[1],17.1
same,fold change (FC),[2],15.3
same,Activity,[3],Dose-dependent effect
same,Activity,[4],Non-toxic
same,Activity,[5],Dose-dependent effect
same,Activity,[6],Dose-dependent effect
same,"viability at 24 h, 160 µM",[7],80%
same,"viability at 24 h, 160 µM",[8],80%
same,"viability at 24 h, 160 µM",[9],80%
same,Activity,[10],Non-toxic
same,Activity,[11],Non-toxic
same,Activity,[12],Non-toxic
same,Activity,[13],Non-toxic
same,Activity,[14],Non-toxic
same,Activity,[15],Non-toxic
same,viability at 20 µM,[16],85%
same,viability at 20 µM,[17],90%
same,viability at 20 µM,[18],80%
same,Activity,[19],Dose-dependent effect
same,Activity,[20],tde
same,Activity,[21],Dose-dependent effect
same,Activity,[22],Dose-dependent effect
same,Activity,[23],Dose-dependent effect
same,Activity,[24],Dose-dependent effect
same,fold change (FC),[25],6.85
same,fold change (FC),[26],9.57
same,fold change (FC),[27],3.42
same,fold change (FC),[28],4.98
same,fold change (FC),[29],4.67
same,fold change (FC),[30],15.5
